Tests used:
[1] = system: Tyrosine-protein kinase ABL1 (Homo sapiens), P00519 [F317L]
[2] = biological target: Serine/threonine-protein kinase DCLK2 (Homo sapiens) (UniProt Q8N568)
[3] = biological target: Serine/threonine-protein kinase LATS1 (Homo sapiens) (UniProt O95835)
[4] = biological target: Mitogen-activated protein kinase 7 (Homo sapiens) (UniProt Q13164)
[5] = biological target: Alpha-2B adrenergic receptor (Homo sapiens) (UniProt P18089); conditions: Compound concentration 10.0 uM
[6] = biological target: Mitogen-activated protein kinase kinase kinase 2 (Homo sapiens) (UniProt Q9Y2U5)
[7] = biological target: Ephrin type-A receptor 4 (Homo sapiens) (UniProt P54764)
[8] = biological target: Serine/threonine-protein kinase OSR1 (Homo sapiens) (UniProt O95747)
[9] = biological target: Serine/threonine-protein kinase PknB (Mycobacterium tuberculosis) (UniProt P9WI81)
[10] = biological target: T1, Serine/threonine-protein kinase TAO3 (Homo sapiens) (UniProt Q9H2K8)
T1 sequence (whole entry): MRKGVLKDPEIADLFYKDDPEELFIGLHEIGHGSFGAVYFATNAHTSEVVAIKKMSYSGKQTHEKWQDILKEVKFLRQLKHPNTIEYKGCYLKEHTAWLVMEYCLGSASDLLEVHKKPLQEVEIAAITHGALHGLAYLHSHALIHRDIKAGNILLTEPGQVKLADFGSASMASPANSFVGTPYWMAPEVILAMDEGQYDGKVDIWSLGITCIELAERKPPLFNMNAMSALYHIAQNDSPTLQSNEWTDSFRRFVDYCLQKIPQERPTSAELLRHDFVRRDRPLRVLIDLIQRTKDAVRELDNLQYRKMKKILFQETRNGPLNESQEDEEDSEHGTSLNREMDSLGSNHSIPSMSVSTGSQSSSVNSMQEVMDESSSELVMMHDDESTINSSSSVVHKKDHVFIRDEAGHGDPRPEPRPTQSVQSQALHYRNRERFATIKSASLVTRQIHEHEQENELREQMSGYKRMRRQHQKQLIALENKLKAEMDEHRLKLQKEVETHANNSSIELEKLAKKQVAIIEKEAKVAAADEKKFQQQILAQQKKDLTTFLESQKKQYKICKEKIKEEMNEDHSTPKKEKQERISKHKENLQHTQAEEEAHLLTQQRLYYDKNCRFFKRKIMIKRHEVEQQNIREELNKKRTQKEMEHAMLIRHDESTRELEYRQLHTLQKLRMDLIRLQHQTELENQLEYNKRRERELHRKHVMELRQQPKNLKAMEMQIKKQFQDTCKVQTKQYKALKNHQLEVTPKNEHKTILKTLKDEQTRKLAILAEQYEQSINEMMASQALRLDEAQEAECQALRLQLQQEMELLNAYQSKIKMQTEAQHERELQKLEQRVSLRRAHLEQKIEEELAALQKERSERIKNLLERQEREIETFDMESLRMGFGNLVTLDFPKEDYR

[11] = biological target: Mitogen-activated protein kinase kinase kinase 10 (Homo sapiens) (UniProt Q02779)
[12] = system: Mast/stem cell growth factor receptor Kit (Homo sapiens), P10721 [D816V]
[13] = biological target: Dual specificity mitogen-activated protein kinase kinase 5 (Homo sapiens) (UniProt Q13163)
[14] = biological target: RAC-gamma serine/threonine-protein kinase (Homo sapiens) (UniProt Q9Y243)
[15] = biological target: Myotonin-protein kinase (Homo sapiens) (UniProt Q09013)
[16] = biological target: Megakaryocyte-associated tyrosine-protein kinase (Homo sapiens) (UniProt P42679)
[17] = biological target: Serine/threonine-protein kinase pim-1 (Homo sapiens) (UniProt P11309)
[18] = biological target: Receptor tyrosine-protein kinase erbB-4 (Homo sapiens) (UniProt Q15303)
[19] = biological target: Vascular endothelial growth factor receptor 1 (Homo sapiens, UniProt P17948)
[20] = biological target: T2, Serine/threonine-protein kinase Sgk1 (Homo sapiens) (UniProt O00141)
T2 sequence (whole entry): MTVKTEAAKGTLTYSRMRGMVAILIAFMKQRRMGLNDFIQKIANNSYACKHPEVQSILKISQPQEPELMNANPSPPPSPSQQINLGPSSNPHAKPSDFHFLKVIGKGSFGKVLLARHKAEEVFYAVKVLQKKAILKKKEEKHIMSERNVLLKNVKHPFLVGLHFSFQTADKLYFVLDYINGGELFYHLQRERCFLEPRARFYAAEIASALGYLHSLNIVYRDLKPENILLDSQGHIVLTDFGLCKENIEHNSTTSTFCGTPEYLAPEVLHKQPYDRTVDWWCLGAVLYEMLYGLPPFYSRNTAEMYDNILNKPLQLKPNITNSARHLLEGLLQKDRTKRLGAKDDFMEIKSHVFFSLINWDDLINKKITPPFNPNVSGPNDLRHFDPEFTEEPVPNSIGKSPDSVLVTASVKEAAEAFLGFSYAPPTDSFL

[21] = biological target: Platelet-derived growth factor receptor alpha (Homo sapiens) (UniProt P16234)
[22] = system: Epidermal growth factor receptor (Homo sapiens), P00533 [UNDEFINED MUTATION]
[23] = biological target: Phosphatidylinositol 5-phosphate 4-kinase type-2 beta (Homo sapiens) (UniProt P78356)
[24] = system: Epidermal growth factor receptor (Homo sapiens), P00533 [L858R,T790M]
[25] = Compound concentration 100.0 nM
[26] = Compound concentration 1000.0 nM

Mitogen-activated protein kinase kinase kinase 2 (Homo sapiens), sequence (Q9Y2U5 whole entry): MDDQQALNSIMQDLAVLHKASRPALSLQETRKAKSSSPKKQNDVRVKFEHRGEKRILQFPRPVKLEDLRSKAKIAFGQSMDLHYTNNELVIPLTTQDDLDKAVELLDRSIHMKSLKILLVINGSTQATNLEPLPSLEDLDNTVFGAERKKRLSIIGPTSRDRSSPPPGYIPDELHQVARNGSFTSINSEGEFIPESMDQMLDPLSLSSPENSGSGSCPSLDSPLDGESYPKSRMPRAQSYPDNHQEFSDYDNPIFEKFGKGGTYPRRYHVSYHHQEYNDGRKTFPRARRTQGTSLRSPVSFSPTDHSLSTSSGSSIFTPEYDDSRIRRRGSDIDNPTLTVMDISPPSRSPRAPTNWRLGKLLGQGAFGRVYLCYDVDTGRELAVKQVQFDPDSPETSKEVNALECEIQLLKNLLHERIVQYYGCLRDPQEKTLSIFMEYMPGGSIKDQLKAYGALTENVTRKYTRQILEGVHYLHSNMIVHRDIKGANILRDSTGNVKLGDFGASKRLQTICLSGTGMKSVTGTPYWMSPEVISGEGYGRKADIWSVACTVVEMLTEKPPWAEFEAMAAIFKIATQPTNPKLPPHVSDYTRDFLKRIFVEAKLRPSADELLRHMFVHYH
Mitogen-activated protein kinase kinase kinase 10 (Homo sapiens), sequence (Q02779 whole entry, looked up): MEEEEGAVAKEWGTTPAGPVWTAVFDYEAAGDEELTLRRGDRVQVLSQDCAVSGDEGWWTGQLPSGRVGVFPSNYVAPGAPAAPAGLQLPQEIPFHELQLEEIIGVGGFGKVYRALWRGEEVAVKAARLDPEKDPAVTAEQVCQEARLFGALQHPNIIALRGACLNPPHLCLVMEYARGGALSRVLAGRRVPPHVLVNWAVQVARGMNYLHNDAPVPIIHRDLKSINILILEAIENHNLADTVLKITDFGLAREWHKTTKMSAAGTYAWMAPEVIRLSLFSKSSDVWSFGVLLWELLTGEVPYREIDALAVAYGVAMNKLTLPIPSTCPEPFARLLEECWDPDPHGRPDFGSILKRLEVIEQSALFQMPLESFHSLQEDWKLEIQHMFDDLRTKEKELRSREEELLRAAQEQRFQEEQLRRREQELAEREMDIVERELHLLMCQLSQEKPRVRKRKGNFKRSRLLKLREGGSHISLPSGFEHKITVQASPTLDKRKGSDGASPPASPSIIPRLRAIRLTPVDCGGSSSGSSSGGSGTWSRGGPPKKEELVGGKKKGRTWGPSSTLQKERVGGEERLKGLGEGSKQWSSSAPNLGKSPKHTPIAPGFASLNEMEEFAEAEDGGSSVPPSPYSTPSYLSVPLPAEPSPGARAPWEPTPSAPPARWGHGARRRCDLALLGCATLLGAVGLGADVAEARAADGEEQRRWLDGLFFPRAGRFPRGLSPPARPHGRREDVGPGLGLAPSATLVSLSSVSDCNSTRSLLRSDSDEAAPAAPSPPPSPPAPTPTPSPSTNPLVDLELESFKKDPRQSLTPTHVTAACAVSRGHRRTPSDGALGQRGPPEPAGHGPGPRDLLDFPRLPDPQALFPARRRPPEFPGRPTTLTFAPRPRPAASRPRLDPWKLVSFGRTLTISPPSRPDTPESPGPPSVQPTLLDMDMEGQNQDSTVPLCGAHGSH
Serine/threonine-protein kinase OSR1 (Homo sapiens), sequence (O95747 2-527 limits assumed): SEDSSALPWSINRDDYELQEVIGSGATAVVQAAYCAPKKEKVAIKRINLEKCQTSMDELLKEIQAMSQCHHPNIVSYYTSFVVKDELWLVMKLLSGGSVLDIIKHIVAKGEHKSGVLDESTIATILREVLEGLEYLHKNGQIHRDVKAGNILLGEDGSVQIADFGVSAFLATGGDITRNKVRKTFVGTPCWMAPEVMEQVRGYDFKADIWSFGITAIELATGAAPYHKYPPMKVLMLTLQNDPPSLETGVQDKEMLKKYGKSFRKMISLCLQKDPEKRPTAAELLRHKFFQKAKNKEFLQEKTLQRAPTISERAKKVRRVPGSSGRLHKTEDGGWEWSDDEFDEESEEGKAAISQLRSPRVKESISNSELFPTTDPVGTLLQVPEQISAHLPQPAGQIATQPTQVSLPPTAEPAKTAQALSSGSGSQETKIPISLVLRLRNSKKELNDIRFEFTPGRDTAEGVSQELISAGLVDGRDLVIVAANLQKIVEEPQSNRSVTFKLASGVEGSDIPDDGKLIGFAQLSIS
Receptor tyrosine-protein kinase erbB-4 (Homo sapiens), sequence (Q15303 whole entry): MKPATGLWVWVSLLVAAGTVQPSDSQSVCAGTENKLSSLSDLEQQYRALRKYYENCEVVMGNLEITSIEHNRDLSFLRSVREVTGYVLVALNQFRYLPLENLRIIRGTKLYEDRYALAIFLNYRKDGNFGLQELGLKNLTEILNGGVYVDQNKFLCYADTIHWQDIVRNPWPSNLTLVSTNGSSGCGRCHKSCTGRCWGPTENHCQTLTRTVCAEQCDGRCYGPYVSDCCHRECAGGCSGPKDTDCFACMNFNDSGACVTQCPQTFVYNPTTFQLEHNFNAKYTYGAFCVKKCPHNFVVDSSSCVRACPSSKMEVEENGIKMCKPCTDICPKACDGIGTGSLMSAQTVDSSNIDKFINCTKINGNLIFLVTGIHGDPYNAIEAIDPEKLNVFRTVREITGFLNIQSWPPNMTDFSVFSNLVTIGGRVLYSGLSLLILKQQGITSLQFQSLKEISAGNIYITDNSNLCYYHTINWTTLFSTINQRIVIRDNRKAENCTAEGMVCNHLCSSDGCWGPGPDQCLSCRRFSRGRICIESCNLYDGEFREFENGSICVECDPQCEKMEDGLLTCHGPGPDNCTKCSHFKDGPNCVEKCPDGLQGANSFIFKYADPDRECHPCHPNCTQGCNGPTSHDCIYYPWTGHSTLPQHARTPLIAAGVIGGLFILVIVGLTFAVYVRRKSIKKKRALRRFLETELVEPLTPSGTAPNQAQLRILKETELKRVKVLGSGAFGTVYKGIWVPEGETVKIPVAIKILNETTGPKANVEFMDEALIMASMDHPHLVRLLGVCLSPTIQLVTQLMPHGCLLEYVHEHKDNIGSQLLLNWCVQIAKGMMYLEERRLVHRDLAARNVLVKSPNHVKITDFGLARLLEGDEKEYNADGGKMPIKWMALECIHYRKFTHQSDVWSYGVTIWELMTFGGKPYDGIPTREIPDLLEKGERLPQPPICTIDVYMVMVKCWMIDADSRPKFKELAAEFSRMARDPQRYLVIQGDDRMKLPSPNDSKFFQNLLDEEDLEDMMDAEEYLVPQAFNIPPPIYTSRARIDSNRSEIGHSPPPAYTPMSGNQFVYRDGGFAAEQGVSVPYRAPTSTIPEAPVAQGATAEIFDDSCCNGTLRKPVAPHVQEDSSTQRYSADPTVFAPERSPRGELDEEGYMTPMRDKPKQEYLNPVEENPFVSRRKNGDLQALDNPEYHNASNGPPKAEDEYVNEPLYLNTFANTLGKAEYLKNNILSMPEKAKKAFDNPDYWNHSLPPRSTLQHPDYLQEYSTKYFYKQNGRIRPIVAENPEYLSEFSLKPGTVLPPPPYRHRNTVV
RAC-gamma serine/threonine-protein kinase (Homo sapiens), sequence (Q9Y243 whole entry): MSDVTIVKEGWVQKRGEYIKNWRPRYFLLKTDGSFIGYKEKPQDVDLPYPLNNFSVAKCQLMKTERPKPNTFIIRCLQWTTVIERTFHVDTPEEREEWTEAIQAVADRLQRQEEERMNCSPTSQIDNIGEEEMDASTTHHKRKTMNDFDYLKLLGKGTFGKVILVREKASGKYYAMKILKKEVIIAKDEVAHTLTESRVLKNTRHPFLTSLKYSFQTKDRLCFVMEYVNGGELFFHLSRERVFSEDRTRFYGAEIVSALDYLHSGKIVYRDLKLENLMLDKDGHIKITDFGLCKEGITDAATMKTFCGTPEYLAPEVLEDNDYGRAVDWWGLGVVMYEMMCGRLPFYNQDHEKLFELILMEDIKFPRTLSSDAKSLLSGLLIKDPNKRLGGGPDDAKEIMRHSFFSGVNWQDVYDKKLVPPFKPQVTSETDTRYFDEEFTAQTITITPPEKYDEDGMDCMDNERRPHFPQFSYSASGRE
Platelet-derived growth factor receptor alpha (Homo sapiens), sequence (P16234 whole entry): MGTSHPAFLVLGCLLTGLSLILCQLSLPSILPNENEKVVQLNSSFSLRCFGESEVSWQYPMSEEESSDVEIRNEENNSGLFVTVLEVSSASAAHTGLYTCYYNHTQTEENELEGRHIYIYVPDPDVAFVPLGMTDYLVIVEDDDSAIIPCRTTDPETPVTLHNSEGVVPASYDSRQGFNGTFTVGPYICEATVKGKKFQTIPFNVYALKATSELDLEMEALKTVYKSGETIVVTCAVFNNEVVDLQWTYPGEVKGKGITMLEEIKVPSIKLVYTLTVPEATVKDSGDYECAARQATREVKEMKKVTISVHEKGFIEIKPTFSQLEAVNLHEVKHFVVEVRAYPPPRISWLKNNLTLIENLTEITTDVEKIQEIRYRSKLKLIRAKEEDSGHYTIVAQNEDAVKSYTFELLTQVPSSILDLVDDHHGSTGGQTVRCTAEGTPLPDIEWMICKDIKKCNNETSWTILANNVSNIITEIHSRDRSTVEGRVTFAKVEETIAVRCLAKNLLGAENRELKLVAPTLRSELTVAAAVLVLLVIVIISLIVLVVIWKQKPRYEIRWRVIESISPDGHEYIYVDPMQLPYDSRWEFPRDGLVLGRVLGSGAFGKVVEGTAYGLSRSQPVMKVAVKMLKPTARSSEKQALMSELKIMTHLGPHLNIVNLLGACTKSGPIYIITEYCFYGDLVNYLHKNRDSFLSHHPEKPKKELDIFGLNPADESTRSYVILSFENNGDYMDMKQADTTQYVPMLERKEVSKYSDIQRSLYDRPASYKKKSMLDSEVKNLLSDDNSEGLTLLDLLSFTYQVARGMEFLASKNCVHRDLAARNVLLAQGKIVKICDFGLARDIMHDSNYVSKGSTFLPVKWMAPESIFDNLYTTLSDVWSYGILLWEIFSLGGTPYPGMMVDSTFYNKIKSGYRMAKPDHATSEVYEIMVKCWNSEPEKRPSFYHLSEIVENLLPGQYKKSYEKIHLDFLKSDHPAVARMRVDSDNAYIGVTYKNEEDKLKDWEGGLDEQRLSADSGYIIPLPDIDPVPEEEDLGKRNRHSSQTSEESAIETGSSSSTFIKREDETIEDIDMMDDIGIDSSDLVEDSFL

Question: With `CNC(=O)c1ccc(Nc2ncc(C(F)(F)F)c(NCc3nccnc3N(C)S(C)(=O)=O)n2)cc1` [DEFACTINIB] as the compound, how does the residual activity [1, 25] read?
Answer: 100%

Question: And the residual activity [2, 25]?
Answer: 71%

Question: What about the residual activity [3, 25] of the same compound?
Answer: 96%

Question: And the residual activity [4, 25]?
Answer: 87%

Question: What about the inhibition [5] of the same compound?
Answer: 5.76%

Question: And the residual activity [6, 25]?
Answer: 65%

Question: What about the residual activity [7, 25] of the same compound?
Answer: 99%

Question: And the residual activity [8, 25]?
Answer: 100%

Question: And the residual activity [9, 25]?
Answer: 69%

Question: What about the residual activity [10, 25] of the same compound?
Answer: 26%

Question: And the residual activity [11, 25]?
Answer: 68%

Question: What about the residual activity [12, 25] of the same compound?
Answer: 80%

Question: What about the residual activity [13, 25] of the same compound?
Answer: 89%

Question: And the residual activity [14, 25]?
Answer: 36%

Question: What about the residual activity [15, 25] of the same compound?
Answer: 16%

Question: And the residual activity [16, 25]?
Answer: 37%

Question: And the residual activity [17, 25]?
Answer: 93%

Question: And the residual activity [18, 25]?
Answer: 84%

Question: And the residual activity [19, 25]?
Answer: 63%

Question: What about the residual activity [20, 25] of the same compound?
Answer: 56%

Question: And the residual activity [21, 25]?
Answer: 77%

Question: And the residual activity [22, 25]?
Answer: 97%

Question: And the residual activity [23, 25]?
Answer: 91%

Question: What about the residual activity [24, 25] of the same compound?
Answer: 91%

Question: Which results are given for `CN(c1ccnc(CNc2nc(Nc3ccc4c(c3)CC(=O)N4)ncc2C(F)(F)F)n1)S(C)(=O)=O` [PF-00911705]?
Answer: residual activity [1, 26]: 71%; residual activity [2, 26]: 90%; residual activity [3, 26]: 51%; residual activity [4, 26]: 78%; inhibition [5]: -4.21%; residual activity [6, 26]: 9.7%; residual activity [7, 26]: 90%; residual activity [8, 26]: 86%; residual activity [9, 26]: 80%; residual activity [10, 26]: 12%; residual activity [11, 26]: 49%; residual activity [12, 26]: 28%; residual activity [13, 26]: 48%; residual activity [14, 26]: 100%; residual activity [15, 26]: 23%; residual activity [16, 26]: 65%; residual activity [17, 26]: 79%; residual activity [18, 26]: 46%; residual activity [19, 26]: 69%; residual activity [20, 26]: 66%; residual activity [21, 26]: 58%; residual activity [22, 26]: 75%; residual activity [23, 26]: 4.8%; residual activity [24, 26]: 56%
